Experimental data reported in patent publication US20150175599A1, “FAAH Inhibitors” (Ironwood Pharmaceuticals, Inc., priority 2010, published 2015).

Target: T1, hERG channel (Homo sapiens, UniProt Q12809)
T1 construct: expressed in transfected cells; host or cells: CHO (hERG-CHO), under Geneticin selection
Test: hERG channel inhibition, automated patch clamp (IonWorks HT, hERG-CHO)
Assay type: cell-based
Conditions: CHO cells expressing hERG, 600 s incubation; for inhibition at 600 s, 1 µM: 1 μM compound, read-out: hERG Channel Inhibition % (at 1 μM), vehicle-subtracted values; for inhibition at 600 s, 10 µM: 10 μM compound, read-out: hERG Channel Inhibition % (at 10 μM), vehicle-subtracted values
Protocol: Human ether-a-gogo-related (hERG) ion channel encodes the inward rectifying voltage gated potassium channel in the heart and has a major role during the repolarization of the cardiac action potential. It is well established that blockade of this ion channel can lead to potentially lethal arrhythmias. hERG pre-clinical safety data is often used by regulatory agencies in elucidate the toxicity profile of certain compositions. The disclosed compounds of Table 1 were tested for their ability to inhibit hERG ion channels.
Media components include F12 Nutrient Mixture (Ham) with GlutaMAX™ (Invitrogen, Cat#31765), Fetal Bovine Serum, Certified (Invitrogen, Cat#16000-044—not heat activated), and Geneticin® Selective Antibiotic (Invitrogen, Cat#10131-027).
One vial of frozen cells, at 1.62×10^6 cells are thawed into a T150 flask (BD Falcon 355001) with 40 mL of pre-warmed complete media. Cells are cultured at 37° C., 5% CO2 for four hours prior to gently changing media. 99% of cells appear attached at this time point.
The flask is media changed at 24 hours post-thaw, the cells are imaged, media changed, and returned to the incubator. At this point, the cells appear healthy and about 25% confluent in the flask. Cells are typically passed 24-48 hours after thaw according to the following intervals and densities below. Cells are incubated at 30° C. for 48 hours prior to assay.
Using an automated patch clamp apparatus (IonWorks^HT), a three pulse protocol was applied by stepping from a holding potential of −80 mV to […] for 2 s, to activate hERG channels. The membrane voltage was then stepped back to −50 mV for 2 s to evoke a tail current prior to returning to the holding potential for 1 s. This sequence was repeated a further two times. This voltage protocol was applied prior to drug (Pre compound) and after 600 s in the presence of drug (Post compound).
The amplitude of the hERG tail current was calculated by measuring the difference between the maximum current on stepping to −50 mV of the third pulse (i.e. peak of the outward hERG tail current) and the current measured immediately prior to activation of any hERG current. This parameter was assessed before (pre tail current amplitude) and after 600 s incubation (post tail current amplitude) in drug. In order to assess the amount of block produced by test compounds, the data was first filtered using the IonWorks™ software to exclude any cells where the seal resistance was less than 50 MOhm. The remaining data was then exported to an excel compatible data file and only currents with tail currents greater than 250 pA were analyzed. The post/pre tail current amplitude ratio for the third pulse was calculated for each drug and control, and presented as percent inhibition.

T1 sequence (Q12809 whole entry): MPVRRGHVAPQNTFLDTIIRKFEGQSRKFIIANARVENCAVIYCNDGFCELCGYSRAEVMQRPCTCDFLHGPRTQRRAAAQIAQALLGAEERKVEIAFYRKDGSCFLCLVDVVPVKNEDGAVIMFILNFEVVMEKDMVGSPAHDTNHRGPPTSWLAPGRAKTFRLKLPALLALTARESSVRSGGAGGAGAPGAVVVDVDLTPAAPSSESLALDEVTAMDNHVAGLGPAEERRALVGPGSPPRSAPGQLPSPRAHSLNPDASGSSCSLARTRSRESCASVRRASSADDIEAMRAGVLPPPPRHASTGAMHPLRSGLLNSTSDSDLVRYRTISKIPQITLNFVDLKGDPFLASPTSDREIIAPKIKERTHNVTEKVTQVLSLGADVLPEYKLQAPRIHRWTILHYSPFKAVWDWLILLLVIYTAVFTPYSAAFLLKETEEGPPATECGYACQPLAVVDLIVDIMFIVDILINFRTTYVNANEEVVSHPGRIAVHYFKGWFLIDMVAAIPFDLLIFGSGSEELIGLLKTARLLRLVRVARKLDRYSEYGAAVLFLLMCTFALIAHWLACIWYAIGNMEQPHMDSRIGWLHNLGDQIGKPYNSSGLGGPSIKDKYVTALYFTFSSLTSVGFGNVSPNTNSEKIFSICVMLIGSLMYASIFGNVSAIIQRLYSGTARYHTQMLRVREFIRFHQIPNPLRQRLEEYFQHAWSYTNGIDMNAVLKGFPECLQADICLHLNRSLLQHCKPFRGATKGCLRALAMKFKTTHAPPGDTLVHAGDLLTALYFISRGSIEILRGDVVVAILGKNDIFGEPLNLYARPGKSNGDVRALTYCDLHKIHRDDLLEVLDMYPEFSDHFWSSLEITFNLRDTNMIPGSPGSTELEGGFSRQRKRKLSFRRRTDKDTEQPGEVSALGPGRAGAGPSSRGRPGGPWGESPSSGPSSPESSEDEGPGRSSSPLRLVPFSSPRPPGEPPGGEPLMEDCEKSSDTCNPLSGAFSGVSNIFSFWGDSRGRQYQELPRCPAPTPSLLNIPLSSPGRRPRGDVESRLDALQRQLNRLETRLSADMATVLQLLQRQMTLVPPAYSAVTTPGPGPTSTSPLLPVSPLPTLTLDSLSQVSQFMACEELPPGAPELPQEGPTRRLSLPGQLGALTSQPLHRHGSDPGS

Structure (SMILES)	inhibition at 600 s, 1 µM	inhibition at 600 s, 10 µM
COc1ccc2c(c1)c(C(=O)C(=O)Nc1ccnc(OC)n1)c(C)n2Cc1ccc(Cl)cc1 [Compound 46, 2-(1-(4-chlorobenzyl)-5-methoxy-2-methyl-1H-indol-3-yl)-N-(2-methoxypyrimidin-4-yl)-2-oxoacetamide]	< 25%	< 25%
COc1cnc2c(c1)c(C(=O)C(=O)Nc1ccnc(OC)c1)c(C)n2Cc1ccc(Cl)cc1Cl [Compound 42, 2-(1-(2,4-dichlorobenzyl)-5-methoxy-2-methyl-1H-pyrrolo[2,3-b]pyridin-3-yl)-N-(2-methoxypyridin-4-yl)-2-oxoacetamide]	< 25%	50 to 75%
COc1cnc2c(c1)c(C(=O)C(=O)Nc1ccnc(OC)c1)c(C)n2Cc1ccc(Cl)cc1 [Compound 38, 2-(1-(4-chlorobenzyl)-5-methoxy-2-methyl-1H-pyrrolo[2,3-b]pyridin-3-yl)-N-(2-methoxypyridin-4-yl)-2-oxoacetamide]	< 25%	25 to 50%
COc1ccc2c(c1)c(C(=O)C(=O)Nc1cc(Cl)nc(OC)c1)c(C)n2Cc1ccc(Cl)cc1 [Compound 47, N-(2-chloro-6-methoxypyridin-4-yl)-2-(1-(4-chlorobenzyl)-5-methoxy-2-methyl-1H-indol-3-yl)-2-oxoacetamide]	< 25%	< 25%
COc1cc(NC(=O)C(=O)c2c(C)n(Cc3ccc(Cl)cc3)c3cc(F)c(OC)cc23)ccn1 [Compound 72, 2-(1-(4-chlorobenzyl)-6-fluoro-5-methoxy-2-methyl-1H-indol-3-yl)-N-(2-methoxypyridin-4-yl)-2-oxoacetamide]	< 25%	25 to 50%
COc1ccc(Cn2c(C)c(C(=O)C(=O)Nc3ccnc(OC)c3)c3cc(OC)cnc32)nc1 [Compound 40, 2-(5-methoxy-1-((5-methoxypyridin-2-yl)methyl)-2-methyl-1H-pyrrolo[2,3-b]pyridin-3-yl)-N-(2-methoxypyridin-4-yl)-2-oxoacetamide]	< 25%	< 25%
COc1cc(NC(=O)C(=O)c2c(C)n(Cc3ccc(Cl)cc3)c3ccc(C(F)(F)F)cc23)ccn1 [Compound 21, 2-(1-(4-chlorobenzyl)-2-methyl-5-(trifluoromethyl)-1H-indol-3-yl)-N-(2-methoxypyridin-4-yl)-2-oxoacetamide]	< 25%	25 to 50%
COc1cc(NC(=O)C(=O)c2c(C)n(Cc3ncc(Cl)cc3Cl)c3cc(F)c(OC)cc23)ccn1 [Compound 13, 2-(1-((3,5-dichloropyridin-2-yl)methyl)-6-fluoro-5-methoxy-2-methyl-1H-indol-3-yl)-N-(2-methoxypyridin-4-yl)-2-oxoacetamide]	< 25%	< 25%
COc1ccc2c(c1)c(C(=O)C(=O)Nc1cc(OC)ncc1F)c(C)n2Cc1ccc(Cl)cc1 [Compound 54, 2-(1-(4-chlorobenzyl)-5-methoxy-2-methyl-1H-indol-3-yl)-N-(5-fluoro-2-methoxypyridin-4-yl)-2-oxoacetamide]	< 25%	< 25%
COc1cc(NC(=O)C(=O)c2c(C)n(Cc3ccc(Cl)cc3)c3ccc(C#N)cc23)ccn1 [Compound 15, 2-(1-(4-chlorobenzyl)-5-cyano-2-methyl-1H-indol-3-yl)-N-(2-methoxypyridin-4-yl)-2-oxoacetamide]	< 25%	50 to 75%
COc1cc(NC(=O)C(=O)c2c(C)n(Cc3ccc(Cl)cn3)c3cc(Cl)c(OC)cc23)ccn1 [Compound 60, 2-(6-chloro-1-((5-chloropyridin-2-yl)methyl)-5-methoxy-2-methyl-1H-indol-3-yl)-N-(2-methoxypyridin-4-yl)-2-oxoacetamide]	< 25%	25 to 50%
COc1ccc(Cn2c(C)c(C(=O)C(=O)Nc3ccnc(OC)c3)c3cc(OC)c(F)cc32)nc1 [Compound 32, 2-(6-fluoro-5-methoxy-1-((5-methoxypyridin-2-yl)methyl)-2-methyl-1H-indol-3-yl)-N-(2-methoxypyridin-4-yl)-2-oxoacetamide]	< 25%	< 25%
